Here are results for 18 molecules from US10669238B2, “Irreversible bruton's tyrosine kinase inhibitor” (HEFEI INSTITUTES OF PHYSICAL SCIENCE, CHINESE ACADEMY OF …, priority 2016, dated 2020).

Each structure is given as a SMILES string.

Chain of BTK protein kinase (Q06187 whole entry): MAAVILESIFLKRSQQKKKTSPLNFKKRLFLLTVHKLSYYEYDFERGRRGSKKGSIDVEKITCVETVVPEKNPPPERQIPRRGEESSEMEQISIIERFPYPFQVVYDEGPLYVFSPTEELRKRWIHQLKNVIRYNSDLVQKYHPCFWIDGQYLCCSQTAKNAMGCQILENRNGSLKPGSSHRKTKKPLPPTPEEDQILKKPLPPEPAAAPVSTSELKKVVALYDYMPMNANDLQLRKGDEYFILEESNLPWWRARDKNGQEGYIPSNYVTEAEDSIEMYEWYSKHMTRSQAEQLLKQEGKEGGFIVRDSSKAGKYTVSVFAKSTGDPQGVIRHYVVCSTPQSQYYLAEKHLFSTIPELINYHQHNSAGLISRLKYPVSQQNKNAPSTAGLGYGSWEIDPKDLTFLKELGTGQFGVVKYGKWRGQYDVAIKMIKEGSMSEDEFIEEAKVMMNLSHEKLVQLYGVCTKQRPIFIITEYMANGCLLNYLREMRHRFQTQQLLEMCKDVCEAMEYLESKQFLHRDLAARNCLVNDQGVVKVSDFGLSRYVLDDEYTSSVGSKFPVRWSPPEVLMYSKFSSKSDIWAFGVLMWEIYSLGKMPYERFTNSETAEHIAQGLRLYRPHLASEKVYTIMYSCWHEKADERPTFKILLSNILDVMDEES

One assay concerns the target BTK protein kinase (Homo sapiens, UniProt Q06187). Nature of the assay: In vitro enzymatic activity against BTK (ADP-Glo). The assay is classed as biochemical. The settings on record: compound with BTK 4 hours at room temperature; ATP 10 μM, 37° C. 1 hour; value printed in nm. The method, then:
In vitro enzymatic activity of the compounds against BTK was determined in a experimental assay of in vitro enzymatic activity using […] kit (purchased from Progema, USA).
9 μL of BTK protein kinase (at a concentration of 1.5 ng/μL) was used to react with compounds (1 μL) shown in the following table that were diluted three times in gradient at room temperature for 4 hours (the final concentration of the compound being 10 μM, 3 μM, 1 μM, 0.3 μM, 0.1 μM, 0.03 μM, 0.01 μM, 0.003 μM);
2 μL of ATP and 3 μL of the substrate Poly(4:1 Glu, Tyr)Peptide (Promega, USA) (the final concentrations being 10 μM and 0.2 μg/μL, respectively) were added to allow reaction at 37° C. for 1 hour;
5 μL of BTK kinase solution after reaction was taken and added into 5 μL of ADP-Glo™ (Promega, USA) reagent to allow reaction at room temperature for 40 mins so as to terminate the kinase reaction and exhaust the remaining ATP;
10 μL kinase detecting reagent was added to convert ADP to ATP, and newly synthesized ATP was detected using coupled luciferase/[…] reaction, then the IC50 values were calculated by using a plotting method based on the Envision reading.
For orientation: ADP-Glo first removes unused ATP, then detects ADP through luciferase.
For the molecule `C=CC(=O)Nc1cc(Nc2cc(-c3cccc(NC(=O)c4cc5ccccc5s4)c3C)cn(C)c2=O)ccc1N1CCC(OC)CC1` [Compound 87, N-(3-(5-((3-acrylamide-4-(4-methoxypiperidin-1-yl)phenyl)amino)-1-methyl-6-oxo-1,6-dihydropyridin-3-yl)-2-methylphenyl)benzo[b]thiophene-2-carboxamide], the half-maximal inhibitory concentration (IC50) (as a rule, the midpoint of a concentration-inhibition curve) was 126 nM.

Staying with this assay, now noted: compound with BTK 4 hours at room temperature; ATP 10 μM, 37° C. 1 hour; values in nM.
Take `C=CC(=O)Nc1cc(Nc2cc(-c3cccc(NC(=O)c4cccc(C(F)(F)F)c4)c3C)cn(C)c2=O)ccc1C(=O)N1CCOCC1` [Compound 57, N-(3-(5-((3-acrylamide-4-(morpholin-4-carbonyl)phenyl)amino)-1-methyl-6-oxo-1,6-dihydropyridin-3-yl)-2-methylphenyl)-3-(trifluoromethyl)benzoylamide]: the IC50 was over 10000 nM. In turn, `C=CC(=O)Nc1cc(Nc2cc(-c3cccc(NC(=O)c4ccc(C)s4)c3C)cn(C)c2=O)ccc1C(=O)N1CCOCC1` [Compound 71, N-(3-(5-((3-acrylamide-4-(morpholin-4-carbonyl)phenyl)amino)-1-methyl-6-oxo-1,6-dihydropyridin-3-yl)-2-methylphenyl)-5-methylthiophene-2-carboxamide] showed a half-inhibitory concentration (IC50) of 30 nM. Turning to `C=CC(=O)Nc1cc(Nc2cc(-c3cccc(NC(=O)c4cc5c(s4)CCCC5)c3C)cn(C)c2=O)ccc1-n1cccn1` [Compound 86, N-(3-(5-((3-acrylamide-4-(1H-pyrazol-1-yl)phenyl)amino)-1-methyl-6-oxo-1,6-dihydropyridin-3-yl)-2-methylphenyl)-4,5,6,7-tetrahydrobenzo[b]thiophene-2-carboxamide], it took 9.9 nM to reach half-maximal inhibition (IC50). Regarding `C=CC(=O)Nc1cc(Nc2cc(-c3cccc(NC(=O)c4ccc(N5CCCC5)cc4)c3C)cn(C)c2=O)ccc1C(=O)N1CCOCC1` [Compound 45, N-(3-(5-((3-acrylamide-4-(morpholin-4-carbonyl)phenyl)amino)-1-methyl-6-oxo-1,6-dihydropyridin-3-yl)-2-methylphenyl)-4-(pyrrolidin-1-yl)benzoylamide], the half-maximal inhibitory concentration (IC50) was found to be 101 nM. Still for that read-out and setting: next, `C=CC(=O)Nc1cc(Nc2cc(-c3cccc(NC(=O)c4ccc(C(C)(C)C)cc4)c3C)cn(C)c2=O)ccc1C(=O)N1CCCC1` [Compound 31, N-(3-(5-((3-acrylamide-4-(pyrrolidin-1-carbonyl)phenyl)amino)-1-methyl-6-oxo-1,6-dihydropyridin-3-yl)-2-methylphenyl)-4-(tert-butyl)benzamide]: 19 nM; `Cc1c(NC(=O)c2ccc(C(C)(C)C)cc2)cccc1-c1cc(Nc2ccc(C(=O)N3CCCC3)c(NC(=O)CCl)c2)c(=O)n(C)c1` [Compound 32, N-(3-(5-((3-chloroacetamide-4-(pyrrolidin-1-carbonyl)phenyl)amino)-1-methyl-6-oxo-1,6-dihydropyridin-3-yl)-2-methylphenyl)-4-(tert-butyl)benzamide]: 29 nM. With `C=CC(=O)Nc1cc(Nc2cc(-c3cccc(NC(=O)c4cc5ccccc5s4)c3C)cn(C)c2=O)ccc1N1CCOCC1` [Compound 82, N-(3-(5-((3-acrylamide-4-morpholinophenyl)amino)-1-methyl-6-oxo-1,6-dihydropyridin-3-yl)-2-methylphenyl)benzo[b]thiophene-2-carboxamide], the IC50 was found to be 98.8 nM. This IC50 lies about 3.4-fold higher than the previous one.

Turning to `Cc1c(NC(=O)c2ccc(C(C)(C)C)cc2)cccc1-c1cc(Nc2ccc(C(=O)N3CCOCC3)c(NC(=O)CCl)c2)c(=O)n(C)c1` [Compound 2, N-(3-(5-((3-chloroacetamide-4-(morpholin-4-carbonyl)phenyl)amino)-1-methyl-6-oxo-1,6-dihydropyridin-3-yl)-2-methylphenyl)-4-(tert-butyl)benzamide], the IC50 was 37.9 nM. Consider `Cc1c(NC(=O)c2ccc3c(c2)OCO3)cccc1-c1cc(Nc2ccc(C(=O)N3CCOCC3)c(NC(=O)CCl)c2)c(=O)n(C)c1` [Compound 19, N-(3-(5-((3-chloroacetamide-4-(morpholin-4-carbonyl)phenyl)amino)-1-methyl-6-oxo-1,6-dihydropyridin-3-yl)-2-methylphenyl)-benzo[d][1,3]dioxolanyl-5-carboxamide], for which 197 nM corresponded to half-maximal inhibition (IC50). Consider `C=CC(=O)Nc1cc(Nc2cc(-c3cccc(NC(=O)c4cc5ccccc5s4)c3C)cn(C)c2=O)ccc1-n1cccn1` [Compound 85, N-(3-(5-((3-acrylamide-4-(1H-pyrazol-1-yl)phenyl)amino)-1-methyl-6-oxo-1,6-dihydropyridin-3-yl)-2-methylphenyl)benzo[b]thiophene-2-carboxamide], for which 130 nM corresponded to half-maximal inhibition (IC50). For `C=CC(=O)Nc1cc(Nc2cc(-c3cccc(NC(=O)c4ccc5c(c4)CCCC5)c3C)cn(C)c2=O)ccc1C(=O)N1CCOCC1` [Compound 43, N-(3-(5-((3-acrylamide-4-(morpholin-4-carbonyl)phenyl)amino)-1-methyl-6-oxo-1,6-dihydropyridin-3-yl)-2-methylphenyl)-5,6,7,8-tetrahydronaphthalene-2-carboxamide], it took 41 nM to reach half-maximal inhibition (IC50). On to `C=CC(=O)Nc1cc(Nc2cc(-c3cccc(NC(=O)c4ccc(N(C)C)cc4)c3C)cn(C)c2=O)ccc1C(=O)NC1CCOCC1` [Compound 51, 2-acrylamide-4-((5-(3-(4-(dimethylamino)benzoylamide)-2-methylphenyl)-1-methyl-2-oxo-1,2-dihydropyridin-3-yl)amino)-N-(tetrahydro-2H-pyran-4-yl)benzoylamide], for which the IC50 was found to be 89 nM. Compared with the last molecule, the IC50 is about 2.2-fold higher.

`C=CC(=O)Nc1cc(Nc2cc(-c3cccc(NC(=O)c4cc5c(s4)CCCC5)c3C)cn(C)c2=O)ccc1C(=O)N1CCCC1` [Compound 69, N-(3-(5-((3-acrylamide-4-(pyrrolidin-1-carbonyl)phenyl)amino)-1-methyl-6-oxo-1,6-dihydropyridin-3-yl)-2-methylphenyl)-4,5,6,7-tetrahydrobenzo[b]thiophene-2-carboxamide]: half-maximal inhibition (IC50) required 83.6 nM. This IC50 and that of the molecule before are within 1.5-fold of each other.

The molecule `C=CC(=O)Nc1cc(Nc2cc(-c3cccc(NC(=O)c4ccc(N5CCOCC5)cc4)c3C)cn(C)c2=O)ccc1C(=O)N1CCOCC1` [Compound 15, N-(3-(5-((3-acrylamide-4-(morpholin-4-carbonyl)phenyl)amino)-1-methyl-6-oxo-1,6-dihydropyridin-3-yl)-2-methylphenyl)-4-morpholinbenzoylamide] registered a half-maximal inhibitory concentration (IC50) of 262 nM. Still for that read-out and setting: the value for `C=CC(=O)Nc1cc(Nc2cc(-c3cccc(NC(=O)c4ccc(C(C)(C)C)cc4)c3C)cn(C)c2=O)ccc1C(=O)OC` [Compound 49, 2-acrylamide-4-((5-(3-(4-(tert-butyl)benzamide)-2-methylphenyl)-1-methyl-2-oxo-1,2-dihydropyridin-3-yl)amino)methyl benzoate] was 162 nM; that for `C=CC(=O)Nc1cc(Nc2cc(-c3cccc(NC(=O)c4cc5c(s4)CCCC5)c3C)cn(C)c2=O)ccc1C(=O)N1CCOCC1` [Compound 65, N-(3-(5-((3-acrylamide-4-(morpholin-4-carbonyl)phenyl)amino)-1-methyl-6-oxo-1,6-dihydropyridin-3-yl)-2-methylphenyl)-4,5,6,7-tetrahydrobenzo[b]thiophene-2-carboxamide] was 25 nM; that for `Cc1c(NC(=O)c2ccc(N(C)C)cc2)cccc1-c1cc(Nc2ccc(C(=O)N3CCOCC3)c(NC(=O)CCl)c2)c(=O)n(C)c1` [Compound 36, N-(3-(5-((3-chloroacetamide-4-(morpholin-4-carbonyl)phenyl)amino)-1-methyl-6-oxo-1,6-dihydropyridin-3-yl)-2-methylphenyl)-4-(dimethylamino)benzoylamide] was 24 nM.
